Earlier results on 1 compound are cited in US6790965B1, “Combinatorial dihydrobenzopyran library” (Pharmacopeia Drug Discovery, Inc., priority 1994, dated 2004).

The series addresses bovine carbonic anhydrase (Bos taurus, UniProt P00921). As to conditions: relatively weak inhibitor, displaced by increased dansylamide concentration.

Chain of bovine carbonic anhydrase (P00921 whole entry): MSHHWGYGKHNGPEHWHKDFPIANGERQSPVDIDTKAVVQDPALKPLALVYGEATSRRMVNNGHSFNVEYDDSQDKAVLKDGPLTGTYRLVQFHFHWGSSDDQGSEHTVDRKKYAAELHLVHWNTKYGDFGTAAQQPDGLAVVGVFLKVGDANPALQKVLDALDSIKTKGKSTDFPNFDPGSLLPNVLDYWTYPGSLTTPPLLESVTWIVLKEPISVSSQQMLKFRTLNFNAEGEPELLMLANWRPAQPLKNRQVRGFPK

`NS(=O)(=O)c1cc2c(cc1Cl)N=CNS2(=O)=O` [chlorothiazide]: the inhibition constant (Ki) is about 0.075 µM.
